Values after ≈ are worked out from the molar mass of the structure shown. Like-named read-outs stand apart in the source and are kept apart here.
Experiments:
[1] = Solubility in ethanol and in MCT oil; type: physicochemical
Text: An alcohol-soluble species is a species that is insoluble in water and has a greater solubility in ethanol than in medium chain triglyceride (MCT) oils. […] Alcohol-soluble species are preferably pharmacologically active, more preferably are a drug or a supplement, and neither include nor are water. Thus, liquids and solids may exist that technically are soluble in alcohol, but because they also are soluble in water or more or equivalently soluble in MCT oils than in ethanol are not “alcohol-soluble species”.
Solubilized means that the alcohol-soluble species to be delivered is in the solution of the droplet. […] Thus, if either average particle diameters greater than 200 nm or precipitated crystals visible to the naked eye form, the alcohol-soluble species is not solubilized in the solution of the droplet. If an alcohol-soluble species is not solubilized in the solution, it is insoluble in the solution. In many respects, solubility may be thought of as a concentration dependent continuum. For example, the following descriptive terms may be used to express solubility of a solute in a solvent (grams solid/mL of solvent) at 25 degrees Celsius: […]

[2] = cited from earlier work

| SMILES | solubility level in MCT oil ([1]; MCT oil) | solubility level in ethanol ([1]; ethanol) | solubility ([1]; ethanol, organic solvent or mixture, read-out: solubility in ethanol) | solubility ([1]; medium chain triglyceride (MCT) oil, oil or lipid, MCT oil, read-out: solubility in MCT oil) | time within which the remainder is metabolized from the blood ([2]; after introduction) | share metabolized from the blood ([2]; within the first hour of introduction) |
| --- | --- | --- | --- | --- | --- | --- |
| C[C@]12CC[C@H](O)CC1=CC[C@@H]1[C@@H]2CC[C@]2(C)C(=O)CC[C@@H]12 [DHEA, dehydroepiandrosterone (3-beta-hydroxyandrosteron-5-en-17-one)] | sparingly soluble | freely soluble | ~150 mg/mL (≈ 520 mM) | ~10 mg/mL (≈ 34.7 mM) | – | – |
| C[C@]12CC[C@H]3[C@@H](CCC4=CC(=O)CC[C@@]43C)[C@@H]1CC[C@@H]2O [testosterone] | – | – | – | – | three | about 90% |
